# Data published in the supplement of paper PMC10307832.
# Columns and labels:
# Assay in all cases: relative viability (nuclei count vs DMSO), 5 days (fraction); higher = more cells survive
# [1] = compound: C1=CC2=NC=CN=C2C=C1/C=C/3\C(=O)NC(=O)S3 + CCNC(=O)c1noc(-c2cc(C(C)C)c(O)cc2O)c1-c1ccc(CN2CCOCC2)cc1 [Luminespib] (partner 0.01 µM)
# Summary of the method: (§1)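 A single step with final 0.05% Triton X-100, 1% formaldehyde and 1 ug/ml Hoechst fixed the cells and stained nuclei 5 days after treatment. Lung cancer cell lines in 1536-well plates had been treated by pin tool the day after seeding with one drug alone or a fixed anchor-drug dose plus five library-drug doses (not always all listed) in √10 steps, and nuclei were counted on 4× images. Relative viability is the ratio of nuclei in treated wells to nuclei in vehicle wells, taken as the median of duplicate plates.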
# BGJ398 + AZD7762 = compound: CCN1CCN(c2ccc(Nc3cc(N(C)C(=O)Nc4c(Cl)c(OC)cc(OC)c4Cl)ncn3)cc2)CC1 [BGJ398] + NC(=O)Nc1cc(-c2cccc(F)c2)sc1C(=O)N[C@H]1CCCNC1 [AZD7762] (partner 0.2 µM)
# Summary of the method: as §1
# [2] = compound: C1=CC2=NC=CN=C2C=C1/C=C/3\C(=O)NC(=O)S3 + CS(=O)(=O)N1CCN(Cc2cc3nc(-c4cccc5[nH]ncc45)nc(N4CCOCC4)c3s2)CC1 [Pictilisib] (partner 1 µM)
# Summary of the method: as §1
# BGJ398 + OSI-027 = compound: CCN1CCN(c2ccc(Nc3cc(N(C)C(=O)Nc4c(Cl)c(OC)cc(OC)c4Cl)ncn3)cc2)CC1 [BGJ398] + COc1cccc2cc(-c3nc([C@H]4CC[C@H](C(=O)O)CC4)n4ncnc(N)c34)[nH]c12 [OSI-027] (partner 0.5 µM)
# Summary of the method: as §1
Cell Line,relative viability ([1]; first compound 0.02 µM),relative viability ([1]; first compound 0.06325 µM),relative viability ([1]; first compound 0.2 µM),relative viability ([1]; first compound 0.6325 µM),relative viability ([1]; first compound 2 µM),relative viability (BGJ398 + AZD7762; first compound 0.01 µM),relative viability (BGJ398 + AZD7762; first compound 0.03162 µM),relative viability (BGJ398 + AZD7762; first compound 0.1 µM),relative viability (BGJ398 + AZD7762; first compound 0.3162 µM),relative viability (BGJ398 + AZD7762; first compound 1 µM),relative viability ([2]; first compound 0.02 µM),relative viability ([2]; first compound 0.06325 µM),relative viability ([2]; first compound 0.2 µM),relative viability ([2]; first compound 0.6325 µM),relative viability ([2]; first compound 2 µM),relative viability (BGJ398 + OSI-027; first compound 0.01 µM),relative viability (BGJ398 + OSI-027; first compound 0.03162 µM),relative viability (BGJ398 + OSI-027; first compound 0.1 µM),relative viability (BGJ398 + OSI-027; first compound 0.3162 µM),relative viability (BGJ398 + OSI-027; first compound 1 µM)
NCI-H1355,0.687,0.516,0.751,0.631,0.608,0.697,0.818,0.748,0.677,0.713,0.274,0.411,0.499,0.459,0.364,0.356,0.408,0.428,0.413,0.315
NCI-H1395,0.807,0.693,0.719,0.607,0.794,0.372,0.366,0.355,0.352,0.352,0.669,0.596,0.786,0.564,0.512,0.621,0.649,0.551,0.448,0.497
NCI-H1437,1.09,1.14,1.05,1.08,1.12,1.13,1.23,1.14,1.17,1.19,0.441,0.482,0.434,0.347,0.317,0.807,0.867,0.873,0.865,0.926
NCI-H1651,0.848,0.842,0.77,0.753,0.842,0.465,0.442,0.478,0.374,0.471,0.547,0.574,0.598,0.462,0.472,0.562,0.661,0.728,0.635,0.709
NCI-H1666,1.04,0.994,1.05,0.965,1.03,0.95,0.784,0.866,0.703,0.728,0.286,0.39,0.403,0.534,0.327,0.859,0.834,0.862,0.886,0.764
NCI-H1734,0.245,0.217,0.182,0.194,0.257,0.504,0.56,0.538,0.554,0.624,0.426,,0.509,0.421,0.274,0.589,0.645,0.675,0.579,0.702
NCI-H1755,0.433,0.329,0.606,0.244,0.352,0.487,0.496,0.384,0.339,0.399,0.423,0.403,0.515,0.449,0.426,0.598,0.852,0.749,0.779,0.698
NCI-H1792,0.418,0.29,0.453,0.436,0.374,0.678,0.595,0.784,0.646,0.718,0.26,0.16,0.341,0.214,0.296,0.684,0.731,0.762,0.581,0.416
